Reference: patent US8435978B2, “Substituted sulfonamide compounds” (Gruenenthal GmbH, priority 2006, dated 2013)
Where a name gives a salt, the structure may show the parent alone.

Key:
[1] = target: T1, B1R receptor of the rat (Rattus norvegicus, UniProt P97583); assay: Functional study on the bradykinin receptor 1 (B1R), FLIPR Ca2+ assay, rB1R cells; format: cell-based; settings: agonist Des-Arg9-bradykinin 100 nM, % inhibition compared with the maximum achievable inhibition; for inhibition at 10 µM: CHO-K1, test substance 10 μM, read-out: B1R Antagonism, rat [10 μM] % Inhibition
T1 construct: host or cells: CHO K1 cells (Chinese hamster ovary), stably transfected
T1 sequence (P97583 1-337): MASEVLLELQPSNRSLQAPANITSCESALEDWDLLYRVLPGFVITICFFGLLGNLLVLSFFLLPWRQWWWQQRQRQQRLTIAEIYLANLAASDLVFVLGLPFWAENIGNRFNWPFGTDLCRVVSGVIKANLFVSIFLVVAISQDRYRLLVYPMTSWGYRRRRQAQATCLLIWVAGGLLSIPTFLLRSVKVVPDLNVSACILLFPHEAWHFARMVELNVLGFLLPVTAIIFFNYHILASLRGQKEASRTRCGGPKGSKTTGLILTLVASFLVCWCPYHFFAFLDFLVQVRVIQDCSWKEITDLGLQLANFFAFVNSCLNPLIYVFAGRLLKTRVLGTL
In short: (§1)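 Readout: peak Fluo-4 Ca2+ fluorescence, FLIPR. Stable CHO K1 hB1R or rB1R cells; cpd 10 μM, 10 min preincubation, then agonist (hB1R: Lys-Des-Arg9-BK 0.5 nM; rB1R: Des-Arg9-BK 100 nM). Value = % inhibition relative to maximal achievable inhibition.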

[2] = target: T2, human B1R receptor (Homo sapiens, UniProt P46663); assay: Functional study on the bradykinin receptor 1 (B1R), FLIPR Ca2+ assay, hB1R cells; format: cell-based; settings: agonist Lys-Des-Arg9-bradykinin 0.5 nM, % inhibition compared with the maximum achievable inhibition; for inhibition at 10 µM: CHO-K1, test substance 10 μM, read-out: B1R Antagonism, human [10 μM] % Inhibition
T2 construct: host or cells: CHO K1 cells (Chinese hamster ovary), stably transfected
T2 sequence (P46663 1-353): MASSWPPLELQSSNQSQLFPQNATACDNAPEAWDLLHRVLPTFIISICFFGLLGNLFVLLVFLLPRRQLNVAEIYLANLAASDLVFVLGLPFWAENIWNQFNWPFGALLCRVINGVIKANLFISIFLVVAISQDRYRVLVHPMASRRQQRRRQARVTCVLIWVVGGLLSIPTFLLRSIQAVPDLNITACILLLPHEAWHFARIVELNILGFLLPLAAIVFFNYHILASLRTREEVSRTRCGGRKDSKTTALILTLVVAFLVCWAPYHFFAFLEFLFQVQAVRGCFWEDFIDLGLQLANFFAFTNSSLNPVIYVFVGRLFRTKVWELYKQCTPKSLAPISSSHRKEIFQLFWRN
In short: as §1

SMILES	inhibition at 10 µM [1] [%]	inhibition at 10 µM [2] [%]	B1R Antagonism, rat [10 μM] % Inhibition ([1]; test substance 10 μM, rB1R CHO K1 cells) [%]	B1R Antagonism, human [10 μM] % Inhibition ([2]; test substance 10 μM, hB1R CHO K1 cells) [%]
CN1CCC(N2CCN(C(=O)COCC3CCCCN3S(=O)(=O)c3cccc(Br)c3)CC2)CC1 (stereo not drawn) [Example 121, 2-((1-(3-bromophenylsulfonyl)piperidin-2-yl)methoxy)-1-(4-(1-methylpiperidin-4-yl)piperazin-1-yl)ethanone]	52.7	70.5		
O=C(COCC1CCCN1S(=O)(=O)c1cc(Cl)sc1Cl)N1CCN(Cc2ccccc2)CC1 (stereo not drawn) [Example 478, 1-(4-benzylpiperazin-1-yl)-2-((1-(2,5-dichlorothiophen-3-ylsulfonyl)pyrrolidin-2-yl)methoxy)ethanone]	90.2	36.2		
O=C(COCC1CCCN1S(=O)(=O)c1c(Cl)cccc1Cl)NCc1ccc(CN2CCCC2)cc1 (stereo not drawn) [Example 322, 2-((1-(2,6-dichlorophenylsulfonyl)pyrrolidin-2-yl)methoxy)-N-(4-(pyrrolidin-1-ylmethyl)benzyl)acetamide]	98.7	102		
COc1ccc(S(=O)(=O)N2c3ccccc3CCC2COCC(=O)N2CCN(C3CCN(C)CC3)CC2)cc1 (stereo not drawn) [Example 204, 2-((1-(4-methoxyphenylsulfonyl)-1,2,3,4-tetrahydroquinolin-2-yl)methoxy)-1-(4-(1-methylpiperidin-4-yl)piperazin-1-yl)ethanone]	99	105		
Cc1cccc(Cl)c1S(=O)(=O)N1CCC[C@H]1COCC(=O)N1CCN(C2CCN(C)CC2)CC1 [Example 162, (S)-2-((1-(2-chloro-6-methylphenylsulfonyl)pyrrolidin-2-yl)methoxy)-1-(4-(1-methylpiperidin-4-yl)piperazin-1-yl)ethanone dihydrochloride]	99.5	99.5		
COc1cc(C)c(S(=O)(=O)N2CCCC2COCC(=O)Nc2ccc3c(c2)ncn3C)c(C)c1 (stereo not drawn) [Example 494, 2-((1-(4-methoxy-2,6-dimethylphenylsulfonyl)pyrrolidin-2-yl)methoxy)-N-(1-methyl-1H-benzo[d]imidazol-5-yl)acetamide]	73.4	26.2		
O=C(COCC1CCCCN1S(=O)(=O)c1c(Cl)cccc1Cl)NC1CCN(Cc2ccccc2)CC1 (stereo not drawn) [Example 488, N-(1-benzylpiperidin-4-yl)-2-((1-(2,6-dichlorophenylsulfonyl)piperidin-2-yl)methoxy)acetamide]	102	101		
O=C(COCC1CCCCN1S(=O)(=O)c1cccc2ccccc12)N1CCCN(Cc2ccccc2)CC1 (stereo not drawn) [Example 6, 1-(4-benzyl-[1,4]diazepan-1-yl)-2-[1-(naphthyl-1-sulfonyl)-piperidin-2-ylmethoxy]-ethanone]			94.88	102.21
CN(C)c1ccc(C2CCCN2C(=O)COCC2CCCCN2S(=O)(=O)c2c(Cl)cccc2Cl)cc1 (stereo not drawn) [Example 528, 2-((1-(2,6-dichlorophenylsulfonyl)piperidin-2-yl)methoxy)-1-(2-(4-(dimethylamino)phenyl)pyrrolidin-1-yl)ethanone]	102	88.2		
CCN(Cc1ccncc1)C(=O)COCC1CCCCN1S(=O)(=O)c1c(C)cc(OC)cc1C (stereo not drawn) [Example 510, N-ethyl-2-((1-(4-methoxy-2,6-dimethylphenylsulfonyl)piperidin-2-yl)methoxy)-N-(pyridin-4-ylmethyl)acetamide]	102	51.4		
COc1cc(C)c(S(=O)(=O)N2CCCCC2COCC(=O)NCCCN2CCOCC2)c(C)c1 (stereo not drawn) [Example 344, 2-((1-(4-methoxy-2,6-dimethylphenylsulfonyl)piperidin-2-yl)methoxy)-N-(3-morpholinopropyl)acetamide]	88.4	48.8		
CN1CCCN(C(=O)COCC2CCCCN2S(=O)(=O)c2c(Cl)cccc2Cl)CC1 (stereo not drawn) [Example 483, 2-((1-(2,6-dichlorophenylsulfonyl)piperidin-2-yl)methoxy)-1-(4-methyl-1,4-diazepan-1-yl)ethanone]	104	103		
O=C(COCC1CCCCN1S(=O)(=O)c1cccc(C(F)(F)F)c1)N1CCCCC1c1cncc(Br)c1 (stereo not drawn) [Example 224, 1-(2-(5-bromopyridin-3-yl)piperidin-1-yl)-2-((1-(3-(trifluoromethyl)phenylsulfonyl)piperidin-2-yl)methoxy)ethanone]	52.8	72.1		

Second part, the compound after the results:

inhibition at 10 µM [1] [%]	inhibition at 10 µM [2] [%]	B1R Antagonism, rat [10 μM] % Inhibition ([1]; test substance 10 μM, rB1R CHO K1 cells) [%]	B1R Antagonism, human [10 μM] % Inhibition ([2]; test substance 10 μM, hB1R CHO K1 cells) [%]	SMILES
102	100			COc1cc(C)c(S(=O)(=O)N2Cc3ccccc3C[C@H]2COCC(=O)N2CCC(CCN3CCCC3)CC2)c(C)c1 [Example 187, (S)-2-((2-(4-methoxy-2,6-dimethylphenylsulfonyl)-1,2,3,4-tetrahydroisoquinolin-3-yl)methoxy)-1-(4-(2-(pyrrolidin-1-yl)ethyl)piperidin-1-yl)ethanone]
99.7	87.4			COc1cc(C)c(S(=O)(=O)N2CCCC2COCC(=O)N(C)C(CN2CCCC2)c2ccccc2)c(C)c1 (stereo not drawn) [Example 450, 2-((1-(4-methoxy-2,6-dimethylphenylsulfonyl)pyrrolidin-2-yl)methoxy)-N-methyl-N-(1-phenyl-2-(pyrrolidin-1-yl)ethyl)acetamide]
100	100			COc1cc(C)c(S(=O)(=O)N2CCCCC2COCC(=O)N2CCN(c3ccncc3)CC2)c(C)c1 (stereo not drawn) [Example 147, 2-((1-(4-methoxy-2,6-dimethylphenylsulfonyl)piperidin-2-yl)methoxy)-1-(4-(pyridin-4-yl)piperazin-1-yl)ethanone]
96.8	70.8			COc1cc(C)c(S(=O)(=O)N2CCCCC2COCC(=O)N2CCCC2c2ccccn2)c(C)c1 (stereo not drawn) [Example 247, 2-((1-(4-methoxy-2,6-dimethylphenylsulfonyl)piperidin-2-yl)methoxy)-1-(2-(pyridin-2-yl)pyrrolidin-1-yl)ethanone]
99.3	99.4			COc1cc(C)c(S(=O)(=O)N2CCCCC2COCC(=O)N2CCN(Cc3ccc4nccnc4c3)CC2)c(C)c1 (stereo not drawn) [Example 166, 2-((1-(4-methoxy-2,6-dimethylphenylsulfonyl)piperidin-2-yl)methoxy)-1-(4-(quinoxalin-6-ylmethyl)piperazin-1-yl)ethanone]
101	52			COc1cc(C)c(S(=O)(=O)N2CCCC2COCC(=O)N2CCN(c3ncccn3)CC2)c(C)c1 (stereo not drawn) [Example 309, 2-((1-(4-methoxy-2,6-dimethylphenylsulfonyl)pyrrolidin-2-yl)methoxy)-1-(4-(pyrimidin-2-yl)piperazin-1-yl)ethanone]
99.1	32.3			COc1cc(C)c(S(=O)(=O)N2Cc3ccccc3CC2COCC(=O)N2CCN(c3ccccc3)CC2)c(C)c1C (stereo not drawn) [Example 479, 2-((2-(4-Methoxy-2,3,6-trimethylphenylsulfonyl)-1,2,3,4-tetrahydroisoquinolin-3-yl)methoxy)-1-(4-phenylpiperazin-1-yl)ethanone]
99.6	95.9			COc1cc(C)c(S(=O)(=O)N2CCCCC2COCC(=O)N2CCC(c3ccccn3)C2)c(C)c1 (stereo not drawn) [Example 236, 2-((1-(4-methoxy-2,6-dimethylphenylsulfonyl)piperidin-2-yl)methoxy)-1-(3-(pyridin-2-yl)pyrrolidin-1-yl)ethanone]
93.2	55.4			O=C(COCC1Cc2ccccc2CN1S(=O)(=O)c1ccc(Cl)cc1Cl)N1CCC(N2CCOCC2)CC1 (stereo not drawn) [Example 65, 2-((2-(2,4-dichlorophenylsulfonyl)-1,2,3,4-tetrahydroisoquinolin-3-yl)methoxy)-1-(4-morpholinopiperidin-1-yl)ethanone]
22.5	45.3			Cc1cc(C)c(S(=O)(=O)N2CCCCC2COCC(=O)NCc2ccccc2N2CCN(C)CC2)c(C)c1 (stereo not drawn) [Example 80, N-[2-(4-methyl-piperazin-1-yl)-benzyl]-2-[1-(2,4,6-trimethyl-phenylsulfonyl)-piperidin-2-ylmethoxy]-acetamide]
99.1	101			COc1cc(C)c(S(=O)(=O)N2CCCC2COCC(=O)N2CCN(c3ccccc3)CC2)c(C)c1 (stereo not drawn) [Example 461, 2-((1-(4-methoxy-2,6-dimethylphenylsulfonyl)pyrrolidin-2-yl)methoxy)-1-(4-phenylpiperazin-1-yl)ethanone]
